PMC9150124, “Design of a Potent, Selective, and Brain-Penetrant Inhibitor of Wnt-Deactivating Enzyme Notum by Optimization of a Crystallographic Fragment Hit” (Journal of Medicinal Chemistry, 2022)
pIC50: −log10 of the molar value. Where two headings read alike, the source gives them in different places.

Key:
[1] = molecular target: kinase named in conditions (Homo sapiens, UniProt P00519); assay: SelectScreen kinase profiling, SSBK ZLyte SP Technology; format: biochemical; conditions: ABL1, 10 μM
Sequence of kinase named in conditions (Homo sapiens, UniProt P00519) (P00519 whole entry): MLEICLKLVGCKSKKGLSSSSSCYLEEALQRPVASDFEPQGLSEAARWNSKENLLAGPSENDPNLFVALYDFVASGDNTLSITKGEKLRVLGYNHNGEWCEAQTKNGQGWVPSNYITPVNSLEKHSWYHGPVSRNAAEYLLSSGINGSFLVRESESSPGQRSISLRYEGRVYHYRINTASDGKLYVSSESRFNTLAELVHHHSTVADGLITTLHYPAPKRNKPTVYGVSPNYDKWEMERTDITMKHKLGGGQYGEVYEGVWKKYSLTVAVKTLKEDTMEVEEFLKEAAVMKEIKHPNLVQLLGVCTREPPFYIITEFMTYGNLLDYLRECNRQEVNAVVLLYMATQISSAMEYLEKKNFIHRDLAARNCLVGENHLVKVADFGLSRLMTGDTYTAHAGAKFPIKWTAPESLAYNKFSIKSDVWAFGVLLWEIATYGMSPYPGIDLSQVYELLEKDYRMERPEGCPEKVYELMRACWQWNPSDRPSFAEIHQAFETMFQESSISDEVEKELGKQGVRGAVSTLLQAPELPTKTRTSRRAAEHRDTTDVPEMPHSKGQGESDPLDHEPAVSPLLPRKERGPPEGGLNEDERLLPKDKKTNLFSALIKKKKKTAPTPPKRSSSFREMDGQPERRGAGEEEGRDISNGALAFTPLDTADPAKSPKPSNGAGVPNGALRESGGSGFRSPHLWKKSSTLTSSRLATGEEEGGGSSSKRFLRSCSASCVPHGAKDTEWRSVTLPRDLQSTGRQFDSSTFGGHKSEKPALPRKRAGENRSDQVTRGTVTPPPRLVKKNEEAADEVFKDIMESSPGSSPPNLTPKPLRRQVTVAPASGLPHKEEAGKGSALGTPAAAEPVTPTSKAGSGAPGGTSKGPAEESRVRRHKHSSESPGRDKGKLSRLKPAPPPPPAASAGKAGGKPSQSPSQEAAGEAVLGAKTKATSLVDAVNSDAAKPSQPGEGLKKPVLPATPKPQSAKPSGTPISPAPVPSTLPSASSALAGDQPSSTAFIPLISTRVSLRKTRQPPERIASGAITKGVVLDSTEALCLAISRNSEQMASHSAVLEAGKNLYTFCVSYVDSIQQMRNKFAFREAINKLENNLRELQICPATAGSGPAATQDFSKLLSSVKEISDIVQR
Protocol: (§1) Kinase selectivity screening was performed by Thermo Fisher Scientific (Paisley, U.K.) in their SelectScreen Biochemical Kinase Profiling Service. Assay information and data are presented in the Supporting Information.
(§2) Kinase selectivity screening was performed by ThermoFisher Scientific (Paisley, U.K.) in their SelectScreenTM
(§3) Biochemical Kinase Profiling service .

[2] = molecular target: kinase named in conditions (Homo sapiens, UniProt P08581); assay: as above; format: biochemical; conditions: MET (cMet), 10 μM
Sequence of kinase named in conditions (Homo sapiens, UniProt P08581) (P08581 25-1390): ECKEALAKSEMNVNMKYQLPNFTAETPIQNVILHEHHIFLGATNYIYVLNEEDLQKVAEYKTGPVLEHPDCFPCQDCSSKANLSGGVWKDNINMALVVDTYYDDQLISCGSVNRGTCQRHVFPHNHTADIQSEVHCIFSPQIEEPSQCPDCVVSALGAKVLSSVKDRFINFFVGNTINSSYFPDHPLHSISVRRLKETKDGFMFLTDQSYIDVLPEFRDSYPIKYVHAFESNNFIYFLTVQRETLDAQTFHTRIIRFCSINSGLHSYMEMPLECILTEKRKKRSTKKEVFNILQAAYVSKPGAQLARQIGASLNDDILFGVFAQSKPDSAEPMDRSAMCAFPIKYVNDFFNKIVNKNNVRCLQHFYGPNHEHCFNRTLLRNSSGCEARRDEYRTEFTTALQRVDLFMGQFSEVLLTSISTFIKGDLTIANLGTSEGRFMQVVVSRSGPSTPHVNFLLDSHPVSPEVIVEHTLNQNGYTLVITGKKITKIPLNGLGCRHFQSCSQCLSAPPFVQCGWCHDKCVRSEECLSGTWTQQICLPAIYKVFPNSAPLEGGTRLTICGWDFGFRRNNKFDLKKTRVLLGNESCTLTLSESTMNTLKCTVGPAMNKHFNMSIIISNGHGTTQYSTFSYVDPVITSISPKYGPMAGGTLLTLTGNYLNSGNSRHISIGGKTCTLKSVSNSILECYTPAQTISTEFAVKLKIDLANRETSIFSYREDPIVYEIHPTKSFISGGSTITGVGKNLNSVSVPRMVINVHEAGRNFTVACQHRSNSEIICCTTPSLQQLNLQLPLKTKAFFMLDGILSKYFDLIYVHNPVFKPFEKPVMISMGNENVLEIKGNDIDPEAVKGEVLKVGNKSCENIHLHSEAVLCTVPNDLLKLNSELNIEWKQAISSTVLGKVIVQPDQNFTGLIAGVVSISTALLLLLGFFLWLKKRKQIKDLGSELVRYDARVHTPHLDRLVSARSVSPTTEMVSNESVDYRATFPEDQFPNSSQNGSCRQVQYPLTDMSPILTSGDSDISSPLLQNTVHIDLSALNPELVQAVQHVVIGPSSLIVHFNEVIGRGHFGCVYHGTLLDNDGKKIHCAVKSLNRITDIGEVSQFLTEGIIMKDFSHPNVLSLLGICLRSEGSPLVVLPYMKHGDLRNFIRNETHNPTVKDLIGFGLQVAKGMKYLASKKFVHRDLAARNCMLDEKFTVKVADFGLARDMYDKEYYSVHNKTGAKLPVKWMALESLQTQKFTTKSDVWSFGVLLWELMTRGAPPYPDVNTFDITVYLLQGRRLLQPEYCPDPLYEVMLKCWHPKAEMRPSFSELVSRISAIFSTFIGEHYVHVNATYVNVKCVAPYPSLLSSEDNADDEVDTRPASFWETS
Protocol: as §1, §2, §3

[3] = molecular target: kinase named in conditions (Homo sapiens, UniProt P17612); assay: as above; format: biochemical; conditions: PRKACA (PKA), 10 μM
Protocol: as §1, §2, §3

[4] = molecular target: kinase named in conditions (Homo sapiens, UniProt P27448); assay: as above; format: biochemical; conditions: MARK3, 10 μM
Protocol: as §1, §2, §3

[5] = molecular target: kinase named in conditions (Homo sapiens, UniProt P29376); assay: as above; format: biochemical; conditions: LTK (TYK1), 10 μM
Sequence of kinase named in conditions (Homo sapiens, UniProt P29376) (P29376 17-864): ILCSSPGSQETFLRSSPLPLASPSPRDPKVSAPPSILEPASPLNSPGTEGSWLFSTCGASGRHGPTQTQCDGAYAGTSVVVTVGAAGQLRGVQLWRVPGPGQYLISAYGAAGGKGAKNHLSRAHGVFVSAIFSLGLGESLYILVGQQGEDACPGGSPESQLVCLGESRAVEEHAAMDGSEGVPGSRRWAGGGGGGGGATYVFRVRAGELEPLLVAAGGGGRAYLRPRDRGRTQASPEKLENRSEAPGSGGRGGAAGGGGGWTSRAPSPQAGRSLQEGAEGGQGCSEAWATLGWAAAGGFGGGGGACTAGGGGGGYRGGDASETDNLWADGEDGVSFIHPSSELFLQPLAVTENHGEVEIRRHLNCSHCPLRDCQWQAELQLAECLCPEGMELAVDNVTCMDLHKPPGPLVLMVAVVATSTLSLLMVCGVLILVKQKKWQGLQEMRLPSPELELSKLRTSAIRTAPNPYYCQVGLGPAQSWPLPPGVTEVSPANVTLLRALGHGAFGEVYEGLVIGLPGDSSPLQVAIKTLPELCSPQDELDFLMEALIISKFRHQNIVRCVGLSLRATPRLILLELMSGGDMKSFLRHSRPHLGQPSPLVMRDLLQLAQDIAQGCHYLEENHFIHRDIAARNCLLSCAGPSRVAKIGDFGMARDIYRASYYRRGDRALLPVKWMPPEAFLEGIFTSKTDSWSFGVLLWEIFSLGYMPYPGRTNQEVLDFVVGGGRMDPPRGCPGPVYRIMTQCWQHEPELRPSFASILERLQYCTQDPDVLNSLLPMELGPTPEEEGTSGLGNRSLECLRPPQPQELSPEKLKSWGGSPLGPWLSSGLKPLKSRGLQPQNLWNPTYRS
Protocol: as §1, §2, §3

[6] = molecular target: kinase named in conditions (Homo sapiens, UniProt P53778); assay: as above; format: biochemical; conditions: MAPK12 (p38 gamma), 10 μM
Sequence of kinase named in conditions (Homo sapiens, UniProt P53778) (P53778 whole entry): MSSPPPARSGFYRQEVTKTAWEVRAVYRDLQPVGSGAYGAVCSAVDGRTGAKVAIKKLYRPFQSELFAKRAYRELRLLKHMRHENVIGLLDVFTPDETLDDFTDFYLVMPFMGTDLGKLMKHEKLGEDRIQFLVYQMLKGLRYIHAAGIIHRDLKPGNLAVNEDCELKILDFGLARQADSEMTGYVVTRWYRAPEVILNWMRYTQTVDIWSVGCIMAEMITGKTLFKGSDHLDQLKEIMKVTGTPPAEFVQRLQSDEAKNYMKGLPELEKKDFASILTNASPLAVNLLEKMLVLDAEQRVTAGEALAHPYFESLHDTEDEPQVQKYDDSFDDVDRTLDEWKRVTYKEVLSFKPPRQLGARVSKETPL
Protocol: as §1, §2, §3

[7] = molecular target: kinase named in conditions (Homo sapiens, UniProt Q05513); assay: as above; format: biochemical; conditions: PRKCZ (PKC zeta), 10 μM
Sequence of kinase named in conditions (Homo sapiens, UniProt Q05513) (Q05513 whole entry): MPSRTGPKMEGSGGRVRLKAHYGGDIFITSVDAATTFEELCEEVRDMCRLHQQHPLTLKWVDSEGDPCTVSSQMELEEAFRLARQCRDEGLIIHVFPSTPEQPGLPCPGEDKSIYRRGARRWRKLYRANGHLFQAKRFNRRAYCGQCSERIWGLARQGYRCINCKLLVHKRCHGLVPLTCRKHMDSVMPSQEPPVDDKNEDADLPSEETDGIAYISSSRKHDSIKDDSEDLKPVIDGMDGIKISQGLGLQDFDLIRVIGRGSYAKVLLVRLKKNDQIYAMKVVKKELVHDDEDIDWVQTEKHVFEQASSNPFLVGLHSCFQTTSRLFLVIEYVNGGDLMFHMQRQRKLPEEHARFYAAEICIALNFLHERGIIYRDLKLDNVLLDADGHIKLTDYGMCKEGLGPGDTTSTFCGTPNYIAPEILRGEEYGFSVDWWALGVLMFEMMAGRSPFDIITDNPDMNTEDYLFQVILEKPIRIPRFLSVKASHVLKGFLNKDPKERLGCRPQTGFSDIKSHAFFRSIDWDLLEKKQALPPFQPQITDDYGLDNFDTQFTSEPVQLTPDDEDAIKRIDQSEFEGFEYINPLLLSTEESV
Protocol: as §1, §2, §3

[8] = molecular target: kinase named in conditions (Homo sapiens, UniProt Q05655); assay: as above; format: biochemical; conditions: PRKCD (PKC delta), 10 μM
Protocol: as §1, §2, §3

[9] = molecular target: kinase named in conditions (Homo sapiens, UniProt Q13464); assay: as above; format: biochemical; conditions: ROCK1, 10 μM
Protocol: as §1, §2, §3

[10] = molecular target: kinase named in conditions (Homo sapiens, UniProt Q8N4C8); assay: as above; format: biochemical; conditions: MINK1, 10 μM
Protocol: as §1, §2, §3

[11] = molecular target: kinase named in conditions (Homo sapiens, UniProt Q96PY6); assay: as above; format: biochemical; conditions: NEK1, 10 μM
Protocol: as §1, §2, §3

[12] = molecular target: kinase named in conditions (Homo sapiens, UniProt Q9NWZ3); assay: as above; format: biochemical; conditions: IRAK4, 10 μM
Protocol: as §1, §2, §3

[13] = molecular target: kinase named in conditions (Homo sapiens, UniProt Q9UQM7); assay: as above; format: biochemical; conditions: CAMK2A (CaMKII alpha), 10 μM
Protocol: as §1, §2, §3

MAOA = molecular target: T1, MAOA (Homo sapiens, UniProt P21397); assay: Safety47 MAOA assay; format: biochemical
T1 construct: Eurofins (DiscoverX Safety47)
Protocol: Screening for off-target pharmacology across multiple drug target classes was performed in the DiscoverX Safety47 panel as the SAFETYscan E/IC50 ELECT service by Eurofins (San Diego CA, U.S.A.). Assay information and data are presented in the Supporting Information.
Safety pharmacology studies
Screening for off-target pharmacology across multiple drug target classes was performed in the DiscoverX Safety47™ panel as the SAFETYscan E/IC50 ELECT service by eurofins (San Diego CA, U.S.A.). The assays were performed utilizing the PathHunter enzyme fragment complementation (EFC) technology, FLIPR®-based cellular screening assays, KINOMEscan kinase binding assays, and a variety of enzymatic assays (78 assays).

[14] = Brain tissue binding, rapid equilibrium dialysis; format: in vitro ADME, mouse; conditions: for fraction unbound at 5 h, 10 µM: brain homogenate
Description: Method: rapid equilibrium dialysis.
Test System Mouse Brain Homogenate 10% w/v in PBS
No. of Replicates Two (mouse) or three (rat)
Buffer Phosphate buffer saline, pH 7.4

in vitro = conditions: dog
MDR1 (P-gp) = assay: in vitro; conditions: dog
P-gp (MDR1) = assay: in vitro; conditions: dog
CYP1A2 = molecular target: T2, CYP1A2 (Homo sapiens, UniProt P05177); assay: CYP450 inhibition in HLM
T2 sequence (P05177 1-516): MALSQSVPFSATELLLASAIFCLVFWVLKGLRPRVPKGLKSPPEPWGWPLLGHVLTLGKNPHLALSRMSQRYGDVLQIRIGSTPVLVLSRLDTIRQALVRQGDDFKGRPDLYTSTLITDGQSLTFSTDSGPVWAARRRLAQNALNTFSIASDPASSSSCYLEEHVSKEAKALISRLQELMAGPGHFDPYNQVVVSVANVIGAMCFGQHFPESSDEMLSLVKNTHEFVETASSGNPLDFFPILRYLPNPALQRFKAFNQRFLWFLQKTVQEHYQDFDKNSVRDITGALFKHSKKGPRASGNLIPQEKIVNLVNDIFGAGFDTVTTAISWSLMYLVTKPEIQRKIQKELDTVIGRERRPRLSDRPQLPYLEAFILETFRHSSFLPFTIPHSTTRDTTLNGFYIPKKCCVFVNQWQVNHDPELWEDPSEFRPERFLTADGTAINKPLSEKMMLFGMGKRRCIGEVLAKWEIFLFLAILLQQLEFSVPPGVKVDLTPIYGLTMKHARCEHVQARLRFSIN

CYP3A4 = CYP3A4 (Homo sapiens, UniProt P08684); assay: CYP450 inhibition in HLM
Sequence of CYP3A4 (P08684 whole entry): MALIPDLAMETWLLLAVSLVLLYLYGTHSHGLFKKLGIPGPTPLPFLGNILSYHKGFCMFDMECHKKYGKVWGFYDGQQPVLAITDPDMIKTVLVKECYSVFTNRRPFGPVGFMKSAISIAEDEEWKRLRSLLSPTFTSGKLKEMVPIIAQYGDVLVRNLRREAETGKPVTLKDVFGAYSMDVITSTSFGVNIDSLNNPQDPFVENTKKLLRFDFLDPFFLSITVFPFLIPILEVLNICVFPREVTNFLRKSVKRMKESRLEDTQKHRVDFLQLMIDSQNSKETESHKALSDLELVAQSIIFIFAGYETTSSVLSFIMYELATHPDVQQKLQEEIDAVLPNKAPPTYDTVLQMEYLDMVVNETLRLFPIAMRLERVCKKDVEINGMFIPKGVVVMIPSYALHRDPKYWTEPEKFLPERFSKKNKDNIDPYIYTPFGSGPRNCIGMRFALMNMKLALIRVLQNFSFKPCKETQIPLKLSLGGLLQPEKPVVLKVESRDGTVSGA

[15] = Permeability using Caco-2 cell monolayer; conditions: human
Caco-2 cells = assay: Permeability using Caco-2 cell monolayer; conditions: 2.00 μM
[16] = MDCK-MDR1, MDCK-MDR1 AB Papp, apical to basal
[17] = MDCK-MDR1, MDCK-MDR1 BA Papp, basal to apical

FC(F)(F)c1c(Cl)ccc(-n2ccnn2)c1Cl [8l, 1-(2,4-Dichloro-3-(trifluoromethyl)phenyl)-1H-1,2,3-triazole]
inhibition at 10 µM [1]: 19% | inhibition at 10 µM [2]: 8% | inhibition at 10 µM [3]: 0% | inhibition at 10 µM [4]: 3% | inhibition at 10 µM [5]: 4% | inhibition at 10 µM [6]: 2% | inhibition at 10 µM [7]: 23% | inhibition at 10 µM [8]: -4% | inhibition at 10 µM [9]: 8% | inhibition at 10 µM [10]: 14% | inhibition at 10 µM [11]: 1% | inhibition at 10 µM [12]: 5% | inhibition at 10 µM [13]: -2% | pIC50 (MAOA): 4.55 | fraction unbound at 5 h, 10 µM ([14]; 10% w/v in PBS, pH 7.4, mouse, 10 µM, 5 h, read-out: % Unbound in brain homogenate, mean): 0.0298 | Brain binding, % bound ([14]; mouse brain homogenate): 97.0% | fraction unbound at 5 h, 10 µM ([14]; mouse, 10% w/v in PBS, pH 7.4, mouse brain homogenate, read-out: Brain binding, % bound (converted)): 0.0298 | recovery at 5 h, 10 µM ([14]; mouse, mouse brain homogenate, 10% w/v in PBS, pH 7.4): 107% | Papp (in vitro; [16]): 31 ×10⁻⁶ cm/s | Papp (in vitro; [17]): 39 ×10⁻⁶ cm/s | recovery (MDR1 (P-gp); MDCK-MDR1, MDR1-MDCKII A to B % Recovery): 85.1% | recovery (MDR1 (P-gp); MDCK-MDR1, MDR1-MDCKII B to A % Recovery): 90.5% | Papp (P-gp (MDR1); [16]): 31.4 ×10⁻⁶ cm/s | Papp (P-gp (MDR1); [17]): 39.2 ×10⁻⁶ cm/s | pIC50 (CYP1A2; read-out: CYP inhibition IC50, 1A2, HLM): 6.02 | pIC50 (CYP1A2; read-out: IC50 CYP1A2/Phenacetin, (+)NADPH pre-incubation): 6.02 | pIC50 (CYP1A2; read-out: IC50 CYP1A2/Phenacetin, (-)NADPH pre-incubation): 6.02 | pIC50 (CYP3A4; read-out: CYP inhibition IC50, 3A4(mid.), HLM, midazolam): < 4.30 | pIC50 (CYP3A4; read-out: CYP inhibition IC50, 3A4(test.), HLM, testosterone): < 4.30 | pIC50 (CYP3A4; read-out: IC50 CYP3A4/Midazolam, (+)NADPH pre-incubation): < 4.30 | pIC50 (CYP3A4; read-out: IC50 CYP3A4/Midazolam, (-)NADPH pre-incubation): < 4.30 | pIC50 (CYP3A4; read-out: IC50 CYP3A4/Testosterone, (+)NADPH pre-incubation): < 4.30 | pIC50 (CYP3A4; read-out: IC50 CYP3A4/Testosterone, (-)NADPH pre-incubation): < 4.30 | recovery at 2 h, 2 µM ([15]; Caco-2, pH 7.4, Caco-2 A to B % Recovery): 89.1% | Papp at 2 h, 2 μM ([15]; Caco-2, pH 7.4, Caco-2 AB Papp, apical to basal): 49.4 ×10⁻⁶ cm/s | recovery at 2 h, 2 µM ([15]; Caco-2, pH 7.4, Caco-2 B to A % Recovery): 102% | Papp at 2 h, 2 μM ([15]; Caco-2, pH 7.4, Caco-2 BA Papp, basal to apical): 30.3 ×10⁻⁶ cm/s | Caco-2 AB Papp (Caco-2 cells; apical to basal): 49 10-6 cm/sec | Caco-2 BA Papp (Caco-2 cells; basal to apical): 30 10-6 cm/sec
